Source: patent publication US20150247179A1 (Les Laboratoires Servier, priority 2013, published 2015)
Read-outs that look alike come from different tables or passages of the source.

What was measured:
[1] = target: T1, CYP3A4 (Homo sapiens, UniProt P08684)
Description: (§1) Each active ingredient was incubated at 0.1 μM at 37° C. […] The reaction is initiated by addition of NADPH 1 mM. The incubation is monitored in kinetic form. At the incubation timepoints of 7 min, 17 min, 30 min and then 60 min, an incubation aliquot (100 μL) is sampled and the enzymatic reaction is stopped by adding to that aliquot a to volume of solvent (100 μL of methanol) which is placed in ice for 10 minutes.
(§2) At each incubation timepoint, the active ingredient is quantified by high-performance liquid chromatography (HPLC) coupled with mass spectrometry (MS).
Target sequence in this assay (P08684 2-503): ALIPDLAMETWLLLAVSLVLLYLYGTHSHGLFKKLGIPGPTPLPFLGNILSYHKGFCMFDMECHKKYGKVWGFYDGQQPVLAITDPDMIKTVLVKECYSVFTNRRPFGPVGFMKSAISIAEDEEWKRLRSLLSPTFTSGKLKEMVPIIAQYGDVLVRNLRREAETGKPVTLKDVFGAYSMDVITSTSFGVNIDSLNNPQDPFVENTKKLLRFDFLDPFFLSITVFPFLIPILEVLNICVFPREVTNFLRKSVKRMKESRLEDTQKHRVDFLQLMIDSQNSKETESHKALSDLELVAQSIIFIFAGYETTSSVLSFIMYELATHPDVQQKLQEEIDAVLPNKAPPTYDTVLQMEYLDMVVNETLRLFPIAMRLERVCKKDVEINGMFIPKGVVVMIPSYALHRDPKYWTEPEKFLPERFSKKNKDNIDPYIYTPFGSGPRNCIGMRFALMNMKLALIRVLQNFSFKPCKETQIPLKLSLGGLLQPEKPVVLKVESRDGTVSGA

[2] = target: CYP2C9 (Homo sapiens, UniProt P11712)
Sequence of CYP2C9 (P11712 whole entry): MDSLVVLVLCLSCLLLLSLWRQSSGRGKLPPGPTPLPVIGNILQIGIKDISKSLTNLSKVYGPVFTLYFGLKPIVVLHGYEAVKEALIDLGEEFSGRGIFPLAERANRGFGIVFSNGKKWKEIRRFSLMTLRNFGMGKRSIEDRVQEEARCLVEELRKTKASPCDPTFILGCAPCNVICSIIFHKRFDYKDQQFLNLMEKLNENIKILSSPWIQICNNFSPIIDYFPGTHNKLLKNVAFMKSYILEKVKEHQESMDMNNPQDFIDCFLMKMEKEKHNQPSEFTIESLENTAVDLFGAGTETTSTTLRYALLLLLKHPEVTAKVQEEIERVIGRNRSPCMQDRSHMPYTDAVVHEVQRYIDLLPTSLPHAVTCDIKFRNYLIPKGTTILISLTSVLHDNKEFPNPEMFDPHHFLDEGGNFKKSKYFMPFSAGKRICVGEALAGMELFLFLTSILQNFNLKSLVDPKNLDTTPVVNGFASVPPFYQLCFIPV
Description: as §1, §2

[3] = human
Description: as §1, §2

[4] = target: T2, CYP2C8 (Homo sapiens, UniProt P10632)
T2 sequence (P10632 1-490): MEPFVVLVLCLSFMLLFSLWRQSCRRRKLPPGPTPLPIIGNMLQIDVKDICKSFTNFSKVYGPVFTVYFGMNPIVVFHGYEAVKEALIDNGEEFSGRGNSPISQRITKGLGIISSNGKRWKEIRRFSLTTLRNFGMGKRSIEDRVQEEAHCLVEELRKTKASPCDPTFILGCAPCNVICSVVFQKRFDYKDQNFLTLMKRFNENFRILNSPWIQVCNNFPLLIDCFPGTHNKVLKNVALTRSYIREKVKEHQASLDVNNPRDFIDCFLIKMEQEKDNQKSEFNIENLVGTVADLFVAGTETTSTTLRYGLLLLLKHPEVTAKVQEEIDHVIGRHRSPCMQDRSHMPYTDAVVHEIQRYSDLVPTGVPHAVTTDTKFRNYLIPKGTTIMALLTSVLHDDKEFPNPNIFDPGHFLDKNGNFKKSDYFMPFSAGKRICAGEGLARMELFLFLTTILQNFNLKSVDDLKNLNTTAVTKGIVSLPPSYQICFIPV
Description: as §1, §2

[5] = target: T3, CYP2B6 (Homo sapiens, UniProt P20813); details: in a pool of human liver; cited from earlier work
T3 sequence (P20813 1-491): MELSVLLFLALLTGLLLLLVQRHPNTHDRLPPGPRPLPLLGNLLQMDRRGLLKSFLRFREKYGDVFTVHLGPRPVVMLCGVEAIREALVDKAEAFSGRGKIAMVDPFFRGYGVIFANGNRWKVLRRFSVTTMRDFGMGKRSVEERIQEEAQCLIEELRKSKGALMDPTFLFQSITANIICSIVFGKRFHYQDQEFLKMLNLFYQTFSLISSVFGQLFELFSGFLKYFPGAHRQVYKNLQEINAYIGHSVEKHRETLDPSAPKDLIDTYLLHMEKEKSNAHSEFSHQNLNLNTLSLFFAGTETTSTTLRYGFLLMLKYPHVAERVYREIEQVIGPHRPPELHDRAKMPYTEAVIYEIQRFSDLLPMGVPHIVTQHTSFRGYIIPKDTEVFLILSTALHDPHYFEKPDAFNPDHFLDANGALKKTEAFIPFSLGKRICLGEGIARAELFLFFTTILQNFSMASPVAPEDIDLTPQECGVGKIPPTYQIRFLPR

[6] = target: T4, CYP2A6 (Homo sapiens, UniProt P11509); assay: Percentage inhibition of coumarin hydroxylase activity in irreversibly inhibited human liver microsomes vs control batch; details: probe coumarin
T4 sequence (P11509 1-494): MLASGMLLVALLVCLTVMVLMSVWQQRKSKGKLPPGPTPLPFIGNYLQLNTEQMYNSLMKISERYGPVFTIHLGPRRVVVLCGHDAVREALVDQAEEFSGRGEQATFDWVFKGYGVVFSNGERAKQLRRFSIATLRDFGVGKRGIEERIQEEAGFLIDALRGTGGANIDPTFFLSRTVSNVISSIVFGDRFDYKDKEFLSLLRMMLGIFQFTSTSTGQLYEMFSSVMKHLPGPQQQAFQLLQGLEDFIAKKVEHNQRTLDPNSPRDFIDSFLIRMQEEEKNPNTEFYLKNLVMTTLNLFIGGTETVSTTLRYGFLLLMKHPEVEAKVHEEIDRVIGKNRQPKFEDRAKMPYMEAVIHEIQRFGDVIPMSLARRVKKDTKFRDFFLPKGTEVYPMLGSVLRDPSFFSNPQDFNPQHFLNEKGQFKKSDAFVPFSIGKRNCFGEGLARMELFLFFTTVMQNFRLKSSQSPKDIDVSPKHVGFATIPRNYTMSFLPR

[7] = target: T3, CYP2B6; assay: Percentage inhibition of bupropion hydroxylase activity in irreversibly inhibited human liver microsomes vs control batch
[8] = target: T3, CYP2B6
Description: as §1, §2

[9] = target: T1, CYP3A4; details: mirtazapine 2.5 to 1000 μM; human recombinant enzyme model; cited from earlier work
Target sequence in this assay (P08684 whole entry): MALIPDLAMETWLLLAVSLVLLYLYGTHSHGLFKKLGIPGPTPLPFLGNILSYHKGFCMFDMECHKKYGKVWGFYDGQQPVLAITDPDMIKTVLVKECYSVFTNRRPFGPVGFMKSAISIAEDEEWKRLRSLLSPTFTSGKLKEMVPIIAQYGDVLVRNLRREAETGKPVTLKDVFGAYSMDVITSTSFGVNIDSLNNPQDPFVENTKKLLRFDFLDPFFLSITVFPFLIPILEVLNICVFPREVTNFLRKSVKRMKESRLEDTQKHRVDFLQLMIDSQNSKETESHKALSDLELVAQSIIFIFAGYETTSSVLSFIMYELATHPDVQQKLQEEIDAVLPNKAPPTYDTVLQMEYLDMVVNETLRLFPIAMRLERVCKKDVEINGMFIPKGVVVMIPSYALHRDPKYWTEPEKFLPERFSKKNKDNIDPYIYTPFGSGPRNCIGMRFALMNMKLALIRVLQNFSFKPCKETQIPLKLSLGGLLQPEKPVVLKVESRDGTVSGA

[10] = target: T5, CYP2D6 (Homo sapiens, UniProt P10635); details: mirtazapine 2.5 to 1000 μM; human recombinant enzyme model; cited from earlier work
T5 sequence (P10635 whole entry): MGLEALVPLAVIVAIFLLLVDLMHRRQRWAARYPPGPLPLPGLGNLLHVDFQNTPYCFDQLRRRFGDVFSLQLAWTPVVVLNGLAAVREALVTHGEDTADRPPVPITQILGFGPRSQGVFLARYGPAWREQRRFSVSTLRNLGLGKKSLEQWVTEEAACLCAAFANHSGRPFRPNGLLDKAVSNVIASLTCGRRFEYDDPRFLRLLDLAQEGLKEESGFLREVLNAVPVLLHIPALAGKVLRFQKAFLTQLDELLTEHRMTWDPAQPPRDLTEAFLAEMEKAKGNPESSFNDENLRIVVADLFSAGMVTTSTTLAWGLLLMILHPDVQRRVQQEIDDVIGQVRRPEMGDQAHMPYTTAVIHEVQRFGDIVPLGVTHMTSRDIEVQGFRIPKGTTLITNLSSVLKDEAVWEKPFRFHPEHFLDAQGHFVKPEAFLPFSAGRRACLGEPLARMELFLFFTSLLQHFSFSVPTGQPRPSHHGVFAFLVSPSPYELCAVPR

[11] = test system: CYP1A2
Description: as §1, §2

[12] = target: T5, CYP2D6
Description: as §1, §2

[13] = target: T1, CYP3A4; details: bortezomib 2 μM; human liver microsomes; cited from earlier work
Target sequence in this assay (P08684 whole entry): as the sequence (P08684 whole entry) above

[14] = target: T5, CYP2D6; assay: in vitro; details: pH 7.4
[15] = target: T1, CYP3A4; details: healthy volunteer; ritonavir 600 mg; loperamide 16 mg; cited from earlier work
Target sequence in this assay (P08684 whole entry): as above

[16] = target: T1, CYP3A4; details: healthy volunteers; itraconazole 100 mg; loperamide 4 mg; cited from earlier work
Target sequence in this assay (P08684 whole entry): as above

CN[C@H]1CC[C@@H](c2ccc(Cl)c(Cl)c2)c2ccccc21 [sertraline]
inhibition of intrinsic clearance = % involvement of CYP3A4 in the oxidative metabolism (kit of isolated microsomes) [1]: No significant inhibition
inhibition of intrinsic clearance = % involvement of CYP2C9 in the oxidative metabolism (kit of isolated microsomes) [2]: No significant inhibition
intrinsic clearance in the presence of control microsomes [3]: 52.5-70.5 ml/min/g of proteins
inhibition of intrinsic clearance = % involvement of CYP2C8 in the oxidative metabolism (kit of isolated microsomes) [4]: No significant inhibition
% involvement of CYP2B6 in the metabolism, expected data (Obach et al.) [5]: 60%

S=P(N1CC1)(N1CC1)N1CC1 [Thiotepa]
inhibition at 30 min, 15 µM [6]: 64%
inhibition at 30 min, 15 µM ([7]; pH 7.4): 92%

CN1CCN2c3ncccc3Cc3ccccc3C2C1 (stereo not drawn) [mirtazapine]
inhibition of intrinsic clearance = % involvement of CYP2C9 in the oxidative metabolism (kit of isolated microsomes) [2]: No significant inhibition
intrinsic clearance in the presence of control microsomes [3]: 3.9-7.8 ml/min/g of proteins
inhibition of intrinsic clearance = % involvement of CYP2B6 in the oxidative metabolism (kit of isolated microsomes) [8]: No significant inhibition
inhibition of intrinsic clearance = % involvement of CYP2C8 in the oxidative metabolism (kit of isolated microsomes) [4]: No significant inhibition
% involvement of CYP3A4 in the metabolism, expected data (Störmer et al.) [9]: 23%
% involvement of CYP2D6 in the metabolism, expected data (Störmer et al.) [10]: 39%

CC(C)C[C@H](NC(=O)[C@H](Cc1ccccc1)NC(=O)c1cnccn1)B(O)O [bortezomib]
inhibition of intrinsic clearance = % involvement of CYP1A2 in the oxidative metabolism (kit of isolated microsomes) [11]: No significant inhibition
inhibition of intrinsic clearance = % involvement of CYP2C9 in the oxidative metabolism (kit of isolated microsomes) [2]: No significant inhibition
intrinsic clearance in the presence of control microsomes [3]: 6.9-11 ml/min/g of proteins
inhibition of intrinsic clearance = % involvement of CYP2D6 in the oxidative metabolism (kit of isolated microsomes) [12]: No significant inhibition
inhibition of intrinsic clearance = % involvement of CYP2B6 in the oxidative metabolism (kit of isolated microsomes) [8]: No significant inhibition
inhibition of intrinsic clearance = % involvement of CYP2C8 in the oxidative metabolism (kit of isolated microsomes) [4]: No significant inhibition
inhibition of metabolism by anti-CYP 3A4 monoclonal antibody = % involvement of CYP3A4, expected data (Uttamsingh et al.) [13]: 79%

Fc1ccc([C@@H]2CCNC[C@H]2COc2ccc3c(c2)OCO3)cc1 [Paroxetine]
inhibition at 30 min, 50 µM ([7]; pooled human liver microsomes, pH 7.4, probe bupropion): 91%
inhibition at 30 min, 50 µM [14]: 96%

CN(C)C(=O)C(CCN1CCC(O)(c2ccc(Cl)cc2)CC1)(c1ccccc1)c1ccccc1 [loperamide]
increase in exposure, factor [15]: 2.65
increase in exposure, factor [16]: 3.8
